Measured values published in patent publication US20090318468A1, “PYRAZOLE COMPOUNDS 436” (AstraZeneca AB, priority 2008, published 2009).
pIC50: −log10 of the molar value. “And” between values parts separate entries of the source, which are not always exact repeats. Identical values can stand only once.

Biological target: T1, FGFR1 IIIc (Homo sapiens, UniProt P11362)
T1 construct: expressed in transfected cells; host or cells: Cos-1
Experiment: Cell FGFR1 (ECHO): inhibition of transiently expressed FGFR1 IIIc phosphorylation in Cos-1 cells
Assay type: cell-based
Conditions: Cos-1 cells transiently expressing FGFR1 IIIc, 1 hour incubation; read-out: IC50 (inhibition of phosphorylated FGFR1)
Excerpt: Cell FGFR1 (ECHO)—Cell Based Inhibition of Transiently Expressed FGFR1 IIIc Phosphorylation via use of ECHO Technology (Measured using Phospho-Specific Primary and Fluorescent Secondary Antibodies).
This assay is designed to detect inhibitors of transiently expressed FGFR1 phosphorylation by antibody staining of fixed cells detected using ArrayScan technology.
Cos-1 cells were routinely passaged in DMEM (Gibco BRL, 41966) plus 3% foetal calf serum (FCS), 1% L-glutamine (Gibco BRL, 25030) to a confluence of 80%. To undertake the assay, Cos-1 cells were harvested at 90-95% confluence for cell transfection. For each 96-well plate, 24 μl Lipofectamine 2000 was added to 809 ul OptiMEM and incubated at room temperature for 5 minutes. For each 96 well plate, 20 ug 3′ FLAG tagged FGFR1/pcDNA3.1 (In-house clone15, MSD 4793) was diluted with OptiMEM to a total volume of 833 μl. Equal volumes of DNA and Lipofectamine 2000 were combined (DNA: Lipid=1:1.2 ratio) and incubated at room temperature for 20 minutes.
The harvested Cos-1 cells are counted using a coulter counter and diluted further with 1% FCS/DMEM to 2.5×10^5 cells/ml. For each 96-well, 8.33 ml cells were required. […]
Media was removed from the wells using vacuum aspiration; cells were fixed by adding 50 μl of 100% methanol to each well and incubated at room temperature for 20 minutes. […] The plates were read on an Arrayscan (Cellomics). […]

T1 sequence (P11362 22-822): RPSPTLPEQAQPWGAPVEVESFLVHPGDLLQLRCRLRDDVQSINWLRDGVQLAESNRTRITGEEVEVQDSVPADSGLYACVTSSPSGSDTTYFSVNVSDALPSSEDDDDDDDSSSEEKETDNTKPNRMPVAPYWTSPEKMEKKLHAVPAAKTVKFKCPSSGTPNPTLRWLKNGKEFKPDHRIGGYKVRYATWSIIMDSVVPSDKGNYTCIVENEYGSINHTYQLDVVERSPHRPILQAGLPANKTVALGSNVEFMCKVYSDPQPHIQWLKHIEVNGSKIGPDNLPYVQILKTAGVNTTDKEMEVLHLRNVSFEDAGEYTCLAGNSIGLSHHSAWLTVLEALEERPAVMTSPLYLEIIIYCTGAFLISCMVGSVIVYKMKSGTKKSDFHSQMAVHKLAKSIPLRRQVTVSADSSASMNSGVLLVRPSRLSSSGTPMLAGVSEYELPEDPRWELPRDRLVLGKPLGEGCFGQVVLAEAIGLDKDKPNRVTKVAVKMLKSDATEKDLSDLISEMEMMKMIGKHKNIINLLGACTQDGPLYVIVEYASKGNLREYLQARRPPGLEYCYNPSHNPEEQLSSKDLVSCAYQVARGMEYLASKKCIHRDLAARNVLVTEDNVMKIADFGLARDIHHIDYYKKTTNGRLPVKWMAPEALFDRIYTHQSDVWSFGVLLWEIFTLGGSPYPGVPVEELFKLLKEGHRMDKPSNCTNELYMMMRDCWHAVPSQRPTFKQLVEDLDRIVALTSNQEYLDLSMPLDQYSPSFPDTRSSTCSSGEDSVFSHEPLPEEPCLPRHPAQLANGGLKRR

pIC50: > 8.00 and 8.96 and 8.66 and 8.32
Structure (SMILES): COc1cc(CCc2cc(NC(=O)c3ccc(N4CCN(C)[C@H](C)C4)cc3)[nH]n2)cc(OC)c1 [Example 1b, (R)—N-(3-(3,5-Dimethoxyphenethyl)-1H-pyrazol-5-yl)-4-(3,4-dimethylpiperazin-1-yl)benzamide]
